Patent US5399699A, “Indole iminooxy derivatives which inhibit leukotriene biosynthesis” (Abbott Laboratories, priority 1994, dated 1995)

Tests used:
[1] = test system: LTB4 biosynthesis in human polymorphonuclear leukocytes (PMNL); assay: Inhibition of calcium ionophore (A23187)-induced LTB4 biosynthesis in human PMNL; format: cell-based; conditions: 15 min preincubation at 37° C., A23187 8.3 μM, 10 min, LTB4 by HPLC
Experimental: Inhibition of leukotriene biosynthesis was evaluated in assays, involving calcium ionophore-induced LTB4 biosynthesis expressed by human polymorphonuclear leukocytes (PMNL) or human whole blood. Human PMNL were isolated from heparinized (20 USP units/mL) venous blood using Ficoll-Hypaque Mono-Poly Resolving Medium. Human PMNL suspensions (5×10^6 cells/250 μL) were preincubated with test compounds or vehicle for 15 min at 37° C. followed by calcium ionophore A23187 challenge (final concentration of 8.3 μM) and the reaction terminated after 10 min by adding two volumes of methanol containing prostaglandin B2 as an internal recovery standard. The methanol extracts were analyzed for LTB4 content by HPLC.

leukotriene biosynthesis = assay: Inhibition of leukotriene biosynthesis in vivo, rat peritoneal anaphylaxis model, oral administration; conditions: 1 h, by gavage one hour prior to antigen challenge
Experimental: Inhibition of the biosynthesis of leukotrienes in vivo after oral administration of compound was determined using a rat peritoneal anaphylaxis model in a similar manner as that described by Young and coworkers (Young, P. R.; Dyer, R. D.; Carter, G. W. Fed. Proc., Fed. Am. Sec. Exp. Biol. 1985, 44, 1185). In this model rats were injected intraperitoneally (ip) with rabbit antibody to bovine serum albumin (BSA) and three hours later injected ip with BSA to induce an antigen-antibody response. Rats were sacrificed 15 minutes after this challenge and the peritoneal fluids were collected and analyzed for leukotriene levels. Test compounds were administered by gavage one hour prior to the antigen challenge. Percent inhibition values were determined by comparing the treatment group to the mean of the control group.

| Structure (SMILES) | IC50 [1] [nM] | ED50 (leukotriene biosynthesis) [mg/kg] |
| --- | --- | --- |
| CC(C)(CON=CC(=O)O)Cc1c(SC(C)(C)C)c2cc(OCc3ccc4ccccc4n3)ccc2n1Cc1ccc(Cl)cc1 [Example 1] | 10 | 0.9 |
| CC(=NOCC(C)(C)Cc1c(SC(C)(C)C)c2cc(OCc3ccc4ccccc4n3)ccc2n1Cc1ccc(Cl)cc1)C(=O)O [Example 2, 1-(4-chlorobenzyl)-3-(t-butylthio)-5-(2-quinolinemethoxy)indol-2-yl(2,2-dimethyl)prop-3-yl-iminooxy-2-propionic acid] | 10 |  |
| CC(=NOCC(C)(C)Cc1c(SC(C)(C)C)c2cc(OCc3cscn3)ccc2n1Cc1ccc(Cl)cc1)C(=O)O [Example 5, 1-(4-chlorobenzyl)-3-(t-butylthio)-5-(4-thiazolylmethoxy)indol-2-yl-(2,2-dimethyl)prop-3-yliminooxy-2-propionic acid] | 8 |  |
| CC(C)(CON=CC(=O)O)Cc1c(SC(C)(C)C)c2cc(OCc3ccc4ccccc4n3)ccc2n1Cc1ccc(F)cc1 [Example 6, 1-(4-fluorobenzyl)-3-(t-butylthio)-5-(2-quinolinylmethoxy)indol-2-yl-(2,2-dimethyl)prop-3-yliminooxyacetic acid] | 5 |  |
